Results as given in article PMC8615929, “Aspirin-Based Organoiron Dendrimers as Promising Anti-Inflammatory, Anticancer, and Antimicrobial Drugs” (Biomolecules, 2021).
Converted amounts (≈) assume the structure as drawn. Read-outs that look alike come from different tables or passages of the source.

How the values were obtained:
MTT cell viability assay = assay type: cell-based; conditions: human, mean ± SE, unit inferred
Experimental: (§1) The cytotoxic activities of the tested dendrimers against the breast cancer cell line MCF-7, embryonic kidney non-cancer cells (HEK-293), and hepatic cellular Hep-G2 were evaluated by MTT assay. A cell suspension was diluted with complete medium to a concentration of 5 × 10^4 cell/ml. By using a micropipette, 100 μL aliquots of the cell suspension were pipetted into all wells of 96-well plate (~5000 cells/well). These plates were incubated at 37 °C for one day to allow cell attachment. Then, cells were treated using 100 µL of growth medium consisting of 0, 0.001, 0.01, 0.1, 1, 10, or 100 μL of the freshly prepared aspirin-based dendrimers in triplicate. After that, cells were rinsed with phosphate-buffered saline (PBS), and an appropriate fresh medium including 20 μL MTT in phosphate-buffered saline (0.5 mg/mL) was added to the test wells. The 96-well plate was then further incubated in a carbon dioxide incubator at 37 °C for another 4 h, and the MTT assay study was done. The MTT assay procedure is based on the reduction of the tetrazolium salt MTT to unsolvable purple formazan via metabolically effective cells, making their activities quantifiable via spectrophotometry. Consequently, the produced formazan crystals were dissolved in 120 μL DMSO solvent for each well. Cell viability was established by measuring the absorbance of each well at 570 nm, and at a reference wavelength of 630 nm using an ELISA plate reader. […] Vinblastine was used as the standard and the corresponding IC50 values were determined by Equation (1):(1) IC50(%)=ControlOD−CompoundOD/ControlODx 100

[1] = system: breast cancer cell lines (MCF-7); experiment: MTT cell viability assay; assay type: cell-based; conditions: Homo sapiens, MCF7, mean ± SE, unit inferred, read-out: Cytotoxicity (IC50), MCF-7
Experimental: as §1

[2] = system: carrageenan-induced paw edema; experiment: Carrageenan-induced rat paw edema assay; assay type: in vivo; conditions: oral
Experimental: The present study was performed on adult albino Wistar rats, weighing 185 ± 200 g. Animals were kept in the animal house at MSA university. They were kept under suitable conditions of humidity and temperature (humidity 60–70%, temperature 24 ± 2 °C). The animals were fed by standard pellet chow (El-Nasr chemical Co., Cairo, Egypt) and were given access to water ad libitum.
Inflammation was induced in all groups by carrageenan (0.2 mL, 1% saline solution), which was injected subcutaneously into the plantar surface of the right hind paw. Group 1 served as a normal group, group 2 received carrageenan only, and groups 3, 4, 5, 6, and 7 received the test drugs orally 1 h before carrageenan (n = 6). Edema was measured in diameter (mm) at 1 h, 2 h, 4 h, and 6 h after carrageenan injection using a digital caliper. Percentage edema inhibition was calculated as [1 − (sample diameter/control diameter)] × 100. All data of the paw edema are represented as mean ± SD.
The strength of the tested dendrimers to inhibit edema (% edema inhibition) was calculated based on the changes in paw thickness (edema diameter, mm) at different periods; 1 h, 2 h, 4 h, and 6 h (Table 4).

PGE2 = experiment: Determination of rat serum PGE2; assay type: in vivo; conditions: 6 h after carrageenan, oral
Experimental: Inflammation was induced in all groups by carrageenan (0.2 mL, 1% saline solution) injected subcutaneously into the plantar surface of the right hind paw. Group 1 served as a normal group, group 2 received carrageenan only, and groups 3, 4, 5, 6, and 7 received the test drugs orally 1 h before carrageenan (n = 6) [58]. Blood samples were collected from all groups and centrifuged for 15 minutes to separate the serum and measure serum PGE2 Pg/mL. Percentage inhibition was calculated as [1 − (sample PGE2 concentration/control PGE2 concentration)] × 100. All data of the PGE2 concentration are represented as mean ± SD.
The ability of the dendrimers to inhibit PGE2 was evaluated by measuring the rat serum concentration of PGE2 in blood samples collected after 6 h from subcutaneous carrageenan injection.

gastric mucosa [3] = experiment: Evaluation of gastrointestinal toxicity (gastric ulcers); assay type: in vivo; conditions: rat, 400 mg/kg orally, 4 h, mean ± standard deviation
Experimental: The gastric mucosa was carefully inspected for the occurrence of ulcers with the aid of an illuminated magnifying lens (l0×), the ulcer score was calculated according to published method and ulcer index was determined using the reported formula [60]. Ulcer index = 10/x, where x= total mucosal area/ total ulcerated area. All data are represented as mean ± standard deviation.
Rats were fasted for 24 h and then randomly allocated into the following groups to evaluate the potential toxicity of dendrimers on the stomach:
Group 3 received G1 (400 mg/kg) orally.
Group 4 received G2 (400 mg/kg) orally.
Group 5 received G3 (400 mg/kg) orally.
Group 6 received G4 (400 mg/kg) orally.
Animals were left for 4 h and then sacrificed under light anesthesia for stomach dissection. The gastric mucosa was carefully inspected for the occurrence of ulcers with the aid of an illuminated magnifying lens (l0x), the ulcer score was calculated based on published study and ulcer index was determined using the reported formula [60]. Ulcer index = 10/x, where x= total mucosal area/total ulcerated area.

gastric mucosa [4] = experiment: Histopathology examination of stomach; assay type: in vivo, rat
Experimental: The stomach was dissected out, rinsed, and kept in a 10% neutral formalin solution. After fixation, tissues were routinely processed and stained with hematoxylin and eosin for light microscopy. Lesion scores were evaluated in this study according to a published report three parameters were evaluated in relation to their severity; epithelial cell loss was given a score from 0 to 3, hemorrhage was given a score from 0 to 4, and a score from 0 to 2 was given for inflammatory cell infiltration. The total score was given by the summation of the three scores.

Candida albicans = experiment: Agar well diffusion antifungal assay
Aspergillus niger = experiment: Agar well diffusion antifungal assay
[5] = system: Bacillus subtilis (ATCC 6051); experiment: Agar well diffusion antimicrobial assay; conditions: ATCC6051, 24 h, read-out: inhibition zone, B. subtilis
[6] = system: Staphylococcus aureus (ATCC12600); experiment: Agar well diffusion antimicrobial assay; conditions: ATCC12600, 24 h, read-out: inhibition zone, S. aureus
[7] = system: Escherichia coli (ATCC 1175); experiment: Agar well diffusion antimicrobial assay; conditions: ATCC1175, 24 h, read-out: inhibition zone, E. coli
[8] = system: Klebsiella pneumoniae (ATCC10145); experiment: Agar well diffusion antimicrobial assay; conditions: ATCC10145, 24 h, read-out: inhibition zone, K. pneumoniae
COX-2 = target: T1, COX-2 (Ovis aries, UniProt P79208); experiment: In vitro COX-2 inhibition assay (ovine COX-1/COX-2 assay kit); assay type: biochemical
T1 construct: purchased
T1 sequence (P79208 17-603): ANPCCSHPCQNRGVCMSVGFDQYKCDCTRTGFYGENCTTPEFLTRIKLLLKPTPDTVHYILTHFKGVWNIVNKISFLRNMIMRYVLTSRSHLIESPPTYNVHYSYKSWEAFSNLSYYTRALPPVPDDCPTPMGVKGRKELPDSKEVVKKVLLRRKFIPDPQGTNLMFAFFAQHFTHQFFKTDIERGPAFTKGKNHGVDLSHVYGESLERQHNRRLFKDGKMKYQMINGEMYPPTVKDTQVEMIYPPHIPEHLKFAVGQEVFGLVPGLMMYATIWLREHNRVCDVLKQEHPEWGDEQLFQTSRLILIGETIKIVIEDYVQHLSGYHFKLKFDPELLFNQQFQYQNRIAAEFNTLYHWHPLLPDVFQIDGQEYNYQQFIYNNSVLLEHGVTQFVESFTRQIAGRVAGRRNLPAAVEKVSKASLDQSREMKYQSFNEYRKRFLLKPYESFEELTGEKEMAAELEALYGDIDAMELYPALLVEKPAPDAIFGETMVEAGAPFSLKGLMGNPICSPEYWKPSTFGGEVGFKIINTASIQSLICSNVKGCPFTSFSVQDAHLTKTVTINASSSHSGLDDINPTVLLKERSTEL
Description: The selectivity index (SI values) was defined as IC50 COX-1/ IC50 COX-2.
Recent studies on COX-1 and COX-2 inhibitors are focused on increasing the selectivity index of drugs towards […] as it acts as the main effector in the mechanism of pain and inflammation.

[9] = HEK-293 embryonic kidney non-cancer cells, normal cell line, read-out: Cytotoxicity (IC50), HEK-293
[10] = Hep-G2 cells, read-out: Cytotoxicity (IC50), Hep-G2
[11] = rat stomach, compared to the aspirin group
[12] = 15 mg/mL, agar well diffusion, 37 °C 24 h, mean ± SE

In the case of `CC(=O)Oc1ccccc1C(=O)O` [Aspirin, acetylsalicylic acid], the IC50 (MTT cell viability assay; [9]) is reported as 240.18 ± 0.03 µg/mL (≈ 1330 µM), the IC50 (MTT cell viability assay; [10]) is reported as 192.4 ± 0.04 µg/mL (≈ 1070 µM) and the IC50 [1] is reported as 208.96 ± 0.05 µg/mL (≈ 1160 µM). The “% Inhibition of edema 1 h” value ([2]; 1 h after carrageenan) was 34.82%, the “% Inhibition of edema 2 h” value ([2]; 2 h after carrageenan) was 42.23% and the “% Inhibition of edema 4 h” value ([2]; 4 h after carrageenan) was 35.08%. The “% Inhibition of edema 6 h” value ([2]; 6 h after carrageenan) was 47.38%, the “PGE2 Inhibition%” value (PGE2) was 72.40% and the Gastric Mucosal Lesions, Ulcer Area (gastric mucosa [3]) was 86.9 ± 9.51 mm². For the same compound, the “Gastric Mucosal Lesions, Ulcer Score” value (gastric mucosa [3]) was 5.00 ± 0.00, the Epithelial loss score (gastric mucosa [4]; [11]) was “significantly higher epithelial loss score” and the Hemorrhage score (gastric mucosa [4]; [11]) was “highest score of hemorrhage”. The “Histopathological findings of stomach tissue” value (gastric mucosa [4]; rat, 400 mg/kg orally, H&E) was “serious histopathological alterations”, the zone of inhibition at 15000 µg/mL (Candida albicans; Candida albicans, 24 h, read-out: inhibition zone, C. albicans) was 29 ± 0.09 mm and the zone of inhibition at 15000 µg/mL (Aspergillus niger; Aspergillus niger, 24 h, read-out: inhibition zone, A. niger) was 30 ± 0.1 mm. For the same compound, the zone of inhibition at 15000 µg/mL [5] was 23 ± 0.08 mm, the zone of inhibition at 15000 µg/mL [6] was 30 ± 0.07 mm and the zone of inhibition at 15000 µg/mL [7] was 18 ± 0.06 mm. For the same compound, the zone of inhibition at 15000 µg/mL [8] was 26 ± 0.11 mm.

Compound `CC1(C)S[C@@H]2[C@H](NC(=O)[C@H](N)c3ccccc3)C(=O)N2[C@H]1C(=O)O` [Ampicillin] has a zone of inhibition at 15000 µg/mL [5] of 25 ± 0.06 mm and a zone of inhibition at 15000 µg/mL [6] of 15 ± 0.05 mm.

Work on `CNC(C)C1CCC(N)C(OC2C(N)CC(N)C(OC3OCC(C)(O)C(NC)C3O)C2O)O1` (centres unmarked) [Gentamicin] yielded a zone of inhibition at 15000 µg/mL [7] of 17 ± 0.04 mm and a zone of inhibition at 15000 µg/mL [8] of 22 ± 0.02 mm.

Compound `COc1cccc2c1C(=O)c1c(O)c3c(c(O)c1C2=O)C[C@@](O)(C(=O)CO)C[C@@H]3O[C@H]1C[C@H](N)[C@H](O)[C@H](C)O1` [Doxorubicin] has an IC50 (MTT cell viability assay; [9]) of 205.07 ± 0.05 µg/mL (≈ 377 µM), an IC50 (MTT cell viability assay; [10]) of 4.8 ± 0.09 µg/mL (≈ 8.83 µM) and an IC50 [1] of 5.7 ± 0.07 µg/mL (≈ 10.5 µM).

For `C[C@@H]1[C@H](O)[C@@H](C)/C=C/C=C/CC/C=C/C=C/C=C/C=C/C(O[C@H]2O[C@H](C)[C@@H](O)[C@H](N)[C@@H]2O)CC2O[C@](O)(CC(O)C(O)CCC(O)CC(O)CC(O)CC(=O)O[C@H]1C)CC(O)C2C(=O)O` (some centres unmarked) [Nystatin], the “inhibition zone, C. albicans” value (Candida albicans; [12]) was 21 ± 0.11 mm and the “inhibition zone, A. niger” value (Aspergillus niger; [12]) was 15 ± 0.08 mm.

In the case of `CS(=O)(=O)c1ccc(C2=C(c3ccccc3)C(=O)OC2)cc1` [Rofecoxib], the IC50 (COX-2) is reported as 25 nM.
